Assay results from ChEMBL document CHEMBL3621157, “Design, synthesis and biological evaluation of novel 1,2,4-triazolo and 1,2,4-triazino[4,3-a]quinoxalines as potential anticancer and antimicrobial agents” (2015).
Values after ≈ are worked out from the molar mass of the structure shown.

Legend:
Format in all cases: functional
[1] = system: DU-145; experiment: Growth inhibition of human DU145 cells incubated for 48 hrs by sulforhodamine B assay; conditions: DU-145, 48 h
[2] = system: MCF7; experiment: Growth inhibition of human MCF7 cells incubated for 48 hrs by sulforhodamine B assay; conditions: MCF7, 48 h
[3] = system: MDA-MB-231; experiment: Growth inhibition of human MDA-MB-231 cells incubated for 48 hrs by sulforhodamine B assay; conditions: MDA-MB-231, 48 h
[4] = Growth inhibition of human Hs 578T cells incubated for 48 hrs by sulforhodamine B assay
[5] = Growth inhibition of human BT549 cells incubated for 48 hrs by sulforhodamine B assay; conditions: BT-549, 48 h
[6] = system: T47D; experiment: Growth inhibition of human T47D cells incubated for 48 hrs by sulforhodamine B assay
[7] = system: Bacillus subtilis; experiment: Antimicrobial activity against Bacillus subtilis ATCC 6633 incubated at 37 degC for 24 hrs by cup diffusion method
[8] = system: Pseudomonas aeruginosa; experiment: Antimicrobial activity against Pseudomonas aeruginosa ATCC 10145 incubated at 37 degC for 24 hrs by cup diffusion method
[9] = system: Escherichia coli; experiment: Antimicrobial activity against Escherichia coli ATCC 11775 incubated at 37 degC for 24 hrs by cup diffusion method
[10] = system: Candida albicans; experiment: Antimicrobial activity against Candida albicans DSM 70014 incubated at 37 degC for 48 hrs by cup diffusion method
[11] = system: Staphylococcus aureus; experiment: Antimicrobial activity against Staphylococcus aureus DSM 1104 incubated for 24 hrs by two-fold serial broth dilution method; conditions: DSM 1104, 24 h
[12] = system: Bacillus subtilis; experiment: Antimicrobial activity against Bacillus subtilis ATCC 6633 incubated for 24 hrs by two-fold serial broth dilution method; conditions: ATCC 6633, 24 h
[13] = system: Bacillus subtilis; experiment: Antimicrobial activity against Bacillus subtilis ATCC 6633 incubated for 24 hrs followed by transfer of colonies to Muller-Hinton agar plate and measured after 18 hrs by two-fold serial broth dilution method
[14] = system: Pseudomonas aeruginosa; experiment: Antimicrobial activity against Pseudomonas aeruginosa ATCC 10145 incubated for 24 hrs followed by transfer of colonies to Muller-Hinton agar plate and measured after 18 hrs by two-fold serial broth dilution method
[15] = system: Candida albicans; experiment: Antimicrobial activity against Candida albicans DSM 70014 incubated for 48 hrs by two-fold serial broth dilution method; conditions: DSM 70014, 48 h
[16] = Growth inhibition of human HOP92 cells at 10 uM incubated for 48 hrs by sulforhodamine B assay; conditions: HOP-92, 48 h, read-out: GI
[17] = system: SR; experiment: Growth inhibition of human SR cells at 10 uM incubated for 48 hrs by sulforhodamine B assay; conditions: read-out: GI
[18] = system: NCI-H460; experiment: Growth inhibition of human NCI-H460 cells at 10 uM incubated for 48 hrs by sulforhodamine B assay; conditions: NCI-H460, 48 h, read-out: GI
[19] = system: HCT-15; experiment: Growth inhibition of human HCT15 cells at 10 uM incubated for 48 hrs by sulforhodamine B assay; conditions: HCT-15, 48 h, read-out: GI
[20] = system: KM12; experiment: Growth inhibition of human KM12 cells at 10 uM incubated for 48 hrs by sulforhodamine B assay; conditions: KM12, 48 h, read-out: GI
[21] = Growth inhibition of human LOXIMVI cells at 10 uM incubated for 48 hrs by sulforhodamine B assay; conditions: LOX IMVI, read-out: GI
[22] = system: A498; experiment: Growth inhibition of human A498 cells at 10 uM incubated for 48 hrs by sulforhodamine B assay; conditions: A498, 48 h, read-out: GI
[23] = system: HL-60(TB); experiment: Growth inhibition of human HL-60(TB) cells incubated for 48 hrs by sulforhodamine B assay; conditions: HL-60, 48 h
[24] = system: K562; experiment: Growth inhibition of human K562 cells incubated for 48 hrs by sulforhodamine B assay; conditions: K562, 48 h
[25] = Growth inhibition of human MOLT4 cells incubated for 48 hrs by sulforhodamine B assay; conditions: MOLT-4, 48 h
[26] = system: NCI-H322M; experiment: Growth inhibition of human NCI-H322M cells incubated for 48 hrs by sulforhodamine B assay
[27] = system: NCI-H460; experiment: Growth inhibition of human NCI-H460 cells incubated for 48 hrs by sulforhodamine B assay; conditions: NCI-H460, 48 h
[28] = system: NCI-H522; experiment: Growth inhibition of human NCI-H522 cells incubated for 48 hrs by sulforhodamine B assay; conditions: NCI-H522, 48 h
[29] = Growth inhibition of human HCC2998 cells incubated for 48 hrs by sulforhodamine B assay; conditions: HCC 2998, 48 h
[30] = system: HCT-116; experiment: Growth inhibition of human HCT116 cells incubated for 48 hrs by sulforhodamine B assay; conditions: HCT-116, 48 h
[31] = system: HCT-15; experiment: Growth inhibition of human HCT15 cells incubated for 48 hrs by sulforhodamine B assay; conditions: HCT-15, 48 h
[32] = system: HT-29; experiment: Growth inhibition of human HT-29 cells incubated for 48 hrs by sulforhodamine B assay; conditions: HT-29, 48 h
[33] = system: KM12; experiment: Growth inhibition of human KM12 cells incubated for 48 hrs by sulforhodamine B assay; conditions: KM12, 48 h
[34] = system: SW-620; experiment: Growth inhibition of human SW620 cells incubated for 48 hrs by sulforhodamine B assay; conditions: SW-620, 48 h
[35] = Growth inhibition of human SF539 cells incubated for 48 hrs by sulforhodamine B assay; conditions: SF-539, 48 h
[36] = system: SNB-19; experiment: Growth inhibition of human SNB19 cells incubated for 48 hrs by sulforhodamine B assay; conditions: SNB-19, 48 h
[37] = system: SNB-75; experiment: Growth inhibition of human SNB75 cells incubated for 48 hrs by sulforhodamine B assay; conditions: SNB-75, 48 h
[38] = Growth inhibition of human LOXIMVI cells incubated for 48 hrs by sulforhodamine B assay; conditions: LOX IMVI
[39] = system: SK-MEL-5; experiment: Growth inhibition of human SK-MEL-5 cells incubated for 48 hrs by sulforhodamine B assay; conditions: SK-MEL-5, 48 h
[40] = system: UACC-257; experiment: Growth inhibition of human UACC257 cells incubated for 48 hrs by sulforhodamine B assay; conditions: UACC-257, 48 h
[41] = system: IGROV-1; experiment: Growth inhibition of human IGROV1 cells incubated for 48 hrs by sulforhodamine B assay; conditions: IGROV-1, 48 h
[42] = system: OVCAR-3; experiment: Growth inhibition of human OVCAR3 cells incubated for 48 hrs by sulforhodamine B assay; conditions: OVCAR-3, 48 h
[43] = system: OVCAR-4; experiment: Growth inhibition of human OVCAR4 cells incubated for 48 hrs by sulforhodamine B assay; conditions: OVCAR-4, 48 h
[44] = Growth inhibition of human NCI-ADR-RES cells incubated for 48 hrs by sulforhodamine B assay
[45] = system: 786-0; experiment: Growth inhibition of human 786-0 cells incubated for 48 hrs by sulforhodamine B assay; conditions: 786-0, 48 h
[46] = system: CAKI-1; experiment: Growth inhibition of human CAKI-1 cells incubated for 48 hrs by sulforhodamine B assay; conditions: CAKI-1, 48 h

SMILES: Clc1ccccc1-c1nnc2c(Cc3ccccc3)nc3ccccc3n12
- GI50 [1]: 44.2 µM
- GI50 [2]: 22.2 µM
- GI50 [3]: 6.24 µM
- GI50 [4]: 9.66 µM
- GI50 [5]: 6.72 µM
- GI50 [6]: 6.82 µM
- inhibition zone (IZ) [7]: 12 mm
- inhibition zone (IZ) [8]: 14 mm
- inhibition zone (IZ) [9]: 10 mm
- inhibition zone (IZ) [10]: 16 mm
- MIC [11]: 100 µg/mL (≈ 270 µM)
- MIC [12]: 25 µg/mL (≈ 67.4 µM)
- MBC [13]: 50 µg/mL (≈ 135 µM)
- MBC [14]: 100 µg/mL (≈ 270 µM)
- MIC [15]: 100 µg/mL (≈ 270 µM)
- inhibition of growth at 10 µM [16]: 50.1%
- inhibition of growth at 10 µM [17]: 84.9%
- inhibition of growth at 10 µM [18]: 84.4%
- inhibition of growth at 10 µM [19]: 55.4%
- inhibition of growth at 10 µM [20]: 51.1%
- inhibition of growth at 10 µM [21]: 60.6%
- inhibition of growth at 10 µM [22]: 61.1%
- GI50 [23]: 32.5 µM
- GI50 [24]: 5.55 µM
- GI50 [25]: 9.04 µM
- GI50 [26]: 53.9 µM
- GI50 [27]: 3.49 µM
- GI50 [28]: 53.9 µM
- GI50 [29]: 42.8 µM
- GI50 [30]: 3.21 µM
- GI50 [31]: 1.96 µM
- GI50 [32]: 9.15 µM
- GI50 [33]: 9.48 µM
- GI50 [34]: 43.4 µM
- GI50 [35]: 24.2 µM
- GI50 [36]: 27.8 µM
- GI50 [37]: 6.12 µM
- GI50 [38]: 3.69 µM
- GI50 [39]: 5.9 µM
- GI50 [40]: 34.3 µM
- GI50 [41]: 27.7 µM
- GI50 [42]: 21.7 µM
- GI50 [43]: 8.01 µM
- GI50 [44]: 7.04 µM
- GI50 [45]: 10.4 µM
- GI50 [46]: 9.71 µM
